The source of these data is publication PMC8594567 (Journal of the American Chemical Society, 2021).

Like-named read-outs stand apart in the source and are kept apart here.

The target of data set [1] is T1, purified human CYP3A5 (Homo sapiens, UniProt P20815). The following applies: 10 min.
The target of data set [2] is T2, purified human CYP3A4 (Homo sapiens, UniProt P08684). As to conditions: 10 min.
The target in data set [3] is T1, purified human CYP3A5. The data set can be described thus: Biochemical P450-Glo CYP3A inhibition assay, CYP3A5.
In data set [4] the target is T2, purified human CYP3A4. The data set can be described thus: Biochemical P450-Glo CYP3A inhibition assay, CYP3A4.
For a further data set, the target named is CYP3A4 (Homo sapiens, UniProt P08684). The data set can be described thus: UV-Vis spectroscopy binding assay, CYP3A4. As to conditions: for increase in Ks on removal of the region B group: CYP3A4, region B-deleted analog vs parent.
The target of data set [5] is T3, CYP3A5 (Homo sapiens, UniProt P20815). The data set can be described thus: UV-Vis spectroscopy binding assay, CYP3A5.
The target in a further data set is CYP3A5 G480S (Homo sapiens, UniProt P20815, G480S). In words: Cell-based P450-Glo CYP3A mutant inhibition assay, CYP3A5 G480S. As to conditions: G480S substitution; 293T/17 cells.
Another data set deals with CYP3A5^G214A/G480A (Homo sapiens, UniProt P20815, G214A/G480A). In words: Cell-based P450-Glo CYP3A mutant inhibition assay, CYP3A5 G214A/G480A. As to conditions: 0.08–20 μM CBZ; 293T/17 cells.
The target in another data set is CYP3A4^D214G (Homo sapiens, UniProt P08684, D214G). In words: Cell-based P450-Glo CYP3A mutant inhibition assay, CYP3A4 D214G. The following applies: 293T/17 cells.
In another data set the target is CYP3A5^G480A (Homo sapiens, UniProt P20815, G480A). The data set can be described thus: Cell-based P450-Glo CYP3A mutant inhibition assay, CYP3A5 G480A. The following applies: 293T/17 cells.
Data set [6] concerns the target T3, CYP3A5. In words: Time-dependent inhibition assay. Type of data set: biochemical. The following applies: pre-incubation 0 or 30 mins at room temperature.
A further data set addresses CYP3A4^F108L (Homo sapiens, UniProt P08684, F108L). In words: Cell-based P450-Glo CYP3A mutant inhibition assay, CYP3A4 F108L. The following applies: relative to CYP3A4^WT; 293T/17 cells.
The next data set concerns the target CYP3A4^WT (Homo sapiens, UniProt P08684). The data set can be described thus: Cell-based P450-Glo CYP3A mutant inhibition assay, CYP3A4 WT. The following applies: 293T/17 cells; also prior data ref 30.
For the next data set, the target named is CYP3A5 G480L (Homo sapiens, UniProt P20815, G480L). In words: Cell-based P450-Glo CYP3A mutant inhibition assay, CYP3A5 G480L. As to conditions: G480L substitution; 293T/17 cells.
The target in data set [7] is T3, CYP3A5. The data set can be described thus: in vitro.

As to `CC(=O)OCC(=O)[C@@]1(OC(C)=O)[C@@H](C)C[C@H]2[C@@H]3C[C@H](F)C4=CC(=O)C=C[C@]4(C)[C@@]3(F)[C@@H](O)C[C@@]21C` [diflorasone], the “CYP3A5 inhibition” value on purified human CYP3A5 [1] was “no or weaker CYP3A5 inhibition than that of CBZ”. Besides, on purified human CYP3A4 [2], the “CYP3A4 inhibition” value is “still capable of inhibiting CYP3A4 at high concentrations”.

Regarding `CCCC(=O)O[C@]1(C(=O)CCl)[C@@H](C)C[C@H]2[C@@H]3CCC4=CC(=O)C=C[C@]4(C)[C@@]3(F)C(=O)C[C@@]21C` [clobetasone butyrate, Clobetasone butyrate], at purified human CYP3A5 [3] (IC50 of analog relative to CBZ), the “weaker CYP3A5 inhibition than CBZ (IC50 ratio)” value is reported as “approximately 5 fold”. For the same molecule, on purified human CYP3A4 [4] (P450-Glo biochemical assay), the “CYP3A4 inhibition” value is recorded as “slightly enhanced CYP3A4 inhibition”. In addition, the “Ks for CYP3A4 compared with CBZ” value on CYP3A4 is “maintained similar Ks value”.

`CCC(=O)OCC(=O)[C@@]1(OC(=O)CC)[C@@H](C)C[C@H]2[C@@H]3CCC4=CC(=O)C=C[C@]4(C)[C@@]3(F)[C@@H](O)C[C@@]21C` [betamethasone dipropionate]: the “CYP3A5 inhibition” value at purified human CYP3A5 [1] was “consistently weaker CYP3A5 inhibition”.

Regarding `CCOC(=O)O[C@]1(C(=O)COC(=O)CC)CC[C@H]2[C@@H]3CCC4=CC(=O)C=C[C@]4(C)[C@H]3[C@@H](O)C[C@@]21C` [prednicarbate, Prednicarbate], the “CYP3A5 inhibition” value on purified human CYP3A5 [1] is “consistently weaker CYP3A5 inhibition”.

Regarding `CCCC(=O)O[C@]1(C(=O)COC(C)=O)CC[C@H]2[C@@H]3C[C@H](F)C4=CC(=O)C=C[C@]4(C)[C@@]3(F)[C@@H](O)C[C@@]21C` [difluprednate], the “CYP3A5 inhibition” value on purified human CYP3A5 [1] was “strongest and most selective CYP3A5 inhibitor among all compounds we tested”. The “weakening of CYP3A4 inhibition on deleting the region B group” value on purified human CYP3A4 [2] is reported as “approximately 10 fold”. The “increase in Ks on removal of the region B group” value is 3 fold at CYP3A4 and > 100 fold at CYP3A5 [5] (human, pH 7.4).

As for `CCC(=O)O[C@]1(C(=O)CCl)[C@@H](C)C[C@H]2[C@@H]3CCC4=CC(=O)C=C[C@]4(C)[C@@]3(F)[C@@H](O)C[C@@]21C` [CBZ, Clobetasol propionate], the “CYP3A5 inhibition” value at purified human CYP3A5 [1] was “potent and selective inhibitor of CYP3A5”. Further, the “reduction in potency vs WT” value at CYP3A5 G480S and at CYP3A5 G480L was “at least 20 fold” each time. Besides, the “effect on enzyme activity” value on CYP3A5^G214A/G480A is reported as “weakly activated”. In addition, the “inhibition compared with CYP3A4^WT” value against CYP3A4^D214G is “identically”. Besides, at CYP3A5^G480A, the “inhibition compared with CYP3A5^WT” value is recorded as “to the same extent as was CYP3A5^WT”. For the same molecule, at CYP3A5 [6], the “time-dependent inhibition of CYP3A5” value is recorded as “not time-dependent inhibitors of CYP3A5”. Also, the “effect of the F108L substitution on inhibitory potency” value at CYP3A4^F108L is on record as “substantially weakened the inhibitory potency”. Moreover, the “increase in Ks on removal of the region B group” value at CYP3A4 is reported as “approximately 20 fold”. For the same molecule, the “CYP3A4 inhibition” value on CYP3A4^WT is “can be inhibited at high CBZ concentrations”.

Regarding `C[C@H]1C[C@H]2[C@@H]3CCC4=CC(=O)C=C[C@]4(C)[C@@]3(F)[C@@H](O)C[C@]2(C)[C@@]1(O)C(=O)CCl` [clobetasol, Clobetasol], on purified human CYP3A5 [3] (P450-Glo biochemical assay), the “CYP3A5 inhibition” value is recorded as “failed to inhibit CYP3A5 even at the highest concentration tested”. The molecule also registered an IC50 against purified human CYP3A4 [4] (purified full-length CYP3A4, luciferin-IPA) of 13 ± 4 µM. In addition, at CYP3A5 [5] (dexamethasone acetate vs difluprednate, clobetasol vs CBZ, Ks higher), the “Ks relative to the counterpart with region B group” value was > 100 fold.

Take `CC(=O)OCC(=O)[C@@]1(O)[C@H](C)C[C@H]2[C@@H]3CCC4=CC(=O)C=C[C@]4(C)[C@@]3(F)[C@@H](O)C[C@@]21C` [dexamethasone acetate]: the inhibition at 10 min, 300 µM on CYP3A5 [7] was 35%. For the same molecule, the “Ks relative to the counterpart with region B group” value at CYP3A5 [5] (human, pH 7.4) is given as > 100 fold.

On to `C[C@@H]1C[C@H]2[C@@H]3CCC4=CC(=O)C=C[C@]4(C)[C@@]3(F)[C@@H](O)C[C@]2(C)[C@H]1C(=O)CO` [desoximetasone], for which the “CYP3A5 inhibition” value on purified human CYP3A5 [1] is reported as “no or weaker CYP3A5 inhibition than that of CBZ”.

One may read the IC50 as the concentration needed to halve the response being measured. Low values mean greater potency in that assay, high ones weaker potency in that assay. Broadly, the inhibition is the relative decrease from the control value, in per cent. Lower therefore signals a weak effect.
